Laboratory results: patent publication US20140005417A1, “WATER-INSOLUBLE COLORING COMPOUND, INK, RESIST COMPOSITION FOR COLOR FILTER, AND THERMAL TRANSFER RECORDING SHEET” (CANON KABUSHIKI KAISHA, priority 2011, published 2014)

Experiments:
physchem = conditions: organic solvent or mixture, thermodynamic from solid
[1] = Light resistance evaluation of ink image samples (exposure test); conditions: ink image sample with L* closest to 60; Weather-Ometer exposure 36 hours, black panel 50° C., chamber 40° C., RH 70%, 340 nm 0.39 W/m^2; less than 10 = good
Solubility in water = format: physicochemical
Source text: The water-insoluble coloring compound represented by Formula (1) of the present invention has a high affinity to an organic solvent. In the present invention, the term “water-insoluble” refers to that the solubility in water is less than 1% as mass percentage.

Structure (SMILES) | ΔE (36 h) [1] | also measured
CCN(CC)c1ccc2c(c1)Oc1cc(N(CC)CC)ccc1C21OC(=O)c2ccccc21 [(1)] | 15.8 | solubility (physchem; chloroform): > 42.9 mg/mL; solubility (physchem; ethyl acetate): < 42.9 mg/mL; solubility (physchem; methanol): > 42.9 mg/mL; solubility (physchem; toluene): < 42.9 mg/mL
Nc1c(Oc2ccccc2)cc(O)c2c1C(=O)c1ccccc1C2=O [(2)] | 12.3 | solubility (physchem; chloroform): < 42.9 mg/mL; solubility (physchem; ethyl acetate): < 42.9 mg/mL; solubility (physchem; methanol): < 42.9 mg/mL; solubility (physchem; toluene): < 42.9 mg/mL
Cc1ccc(/N=N/c2c(O)c(C(=O)O)cc3ccccc23)c(S(=O)(=O)O)c1 [(3)] | 1.5 | solubility (physchem; chloroform): < 42.9 mg/mL; solubility (physchem; ethyl acetate): < 42.9 mg/mL; solubility (physchem; methanol): < 42.9 mg/mL; solubility (physchem; toluene): < 42.9 mg/mL
CCOC(=O)c1ccccc1C(=O)Nc1c(C)cc(C)c(N=c2ccc3c(-c4ccccc4S(=O)(=O)O)c4ccc(Nc5c(C)cc(C)c(NC(=O)c6ccccc6C(=O)OCC)c5C)cc4oc-3c2)c1C [(12)] | 3.5 | 
C=C(C)C(=O)Nc1c(C)cc(C)c(N=c2ccc3c(-c4ccccc4S(=O)(=O)O)c4ccc(Nc5c(C)cc(C)c(NC(=O)C(=C)C)c5C)cc4oc-3c2)c1C [(21)] | 7.8 | 
Cc1cc(C)c(NC(=O)c2cccnc2)c(C)c1N=c1ccc2c(-c3ccccc3S(=O)(=O)O)c3ccc(Nc4c(C)cc(C)c(NC(=O)c5cccnc5)c4C)cc3oc-2c1 [(22)] | 5.0 | 
CCCCCCCCCCCCCCCCCC(=O)Nc1c(C)cc(C)c(N=c2ccc3c(-c4ccccc4S(=O)(=O)O)c4ccc(Nc5c(C)cc(C)c(NC(=O)CCCCCCCCCCCCCCCCC)c5C)cc4oc-3c2)c1C [(23)] | 3.8 | 
Cc1cc(C)c(NC(=O)c2ccccc2)c(C)c1N=c1ccc2c(-c3ccccc3S(=O)(=O)O)c3ccc(Nc4c(C)cc(C)c(NC(=O)c5ccccc5)c4C)cc3oc-2c1 [Compound (10)] | 3.8 | 

The next lines start with results.

ΔE (36 h) [1] | Structure (SMILES) | also measured
2.3 | CC(=O)Nc1c(C)c(N=c2ccc3c(-c4ccccc4S(=O)(=O)O)c4ccc(Nc5c(C)c(NC(C)=O)c(C)c(NC(C)=O)c5C)cc4oc-3c2)c(C)c(NC(C)=O)c1C [(11)] | 
3.1 | CC(=O)Nc1c(C)cc(C)c(N=c2ccc3c(-c4ccccc4S(=O)(=O)O)c4ccc(Nc5c(C)c(NC(C)=O)c(C)c(NC(C)=O)c5C)cc4oc-3c2)c1C [(13)] | 
5.2 | CCc1ccc(NC(C)=O)c(CC)c1N=c1ccc2c(-c3ccccc3S(=O)(=O)O)c3ccc(Nc4c(CC)ccc(NC(C)=O)c4CC)cc3oc-2c1 [(14)] | 
5.0 | CCc1ccc(NC(C)=O)c(CC)c1Nc1ccc2c(-c3ccccc3S(=O)(=O)O)c3ccc(=Nc4c(C)ccc(NC(C)=O)c4C)cc-3oc2c1 [(15)] | 
5.8 | CC(=O)Nc1ccc(C)c(N=c2ccc3c(-c4ccccc4S(=O)(=O)O)c4ccc(Nc5c(C(C)C)ccc(NC(C)=O)c5C(C)C)cc4oc-3c2)c1C [(16)] | 
3.9 | CCOc1cc(C)c(N=c2ccc3c(-c4ccccc4S(=O)(=O)O)c4ccc(Nc5c(C)cc(OCC)c(NC(C)=O)c5C)cc4oc-3c2)c(C)c1NC(C)=O [(18)] | 
3.2 | CC(=O)Nc1c(C)cc(C)c(N=c2ccc3c(-c4ccccc4S(=O)(=O)O)c4ccc(Nc5c(C)cc(C)c(NC(C)=O)c5C)cc4oc-3c2)c1C [Compound (5)] | solubility in water (Solubility in water): less than 1 % as mass percentage
3.3 | CCC(=O)Nc1c(C)cc(C)c(N=c2ccc3c(-c4ccccc4S(=O)(=O)O)c4ccc(Nc5c(C)cc(C)c(NC(=O)CC)c5C)cc4oc-3c2)c1C [Compound (6)] | 
3.2 | CCCC(=O)Nc1c(C)cc(C)c(N=c2ccc3c(-c4ccccc4S(=O)(=O)O)c4ccc(Nc5c(C)cc(C)c(NC(=O)CCC)c5C)cc4oc-3c2)c1C [Compound (7)] | 
2.9 | Cc1cc(C)c(NC(=O)C(C)C)c(C)c1N=c1ccc2c(-c3ccccc3S(=O)(=O)O)c3ccc(Nc4c(C)cc(C)c(NC(=O)C(C)C)c4C)cc3oc-2c1 [Compound (8)] | 
